# In US20220395497A1, “Cancer Treatment Using Camptothecin Derivatives” (priority 2019, published 2022):
# Tested on: adults with recurrence of glioblastoma multiforme (GBM)
# Assay: Phase 2 open-label study of IV AR-67 (7.5 mg/m2 once daily for 5 days, 21-day cycle) in recurrent GBM: tumor response (MRI, MacDonald criteria), PFS, disposition. Cohort 1 = not received or not recently failed (>90 days) bevacizumab; Cohort 2 = recently (<90 days) failed bevacizumab
# Format: in vivo, human
# Procedure: The primary objective in the rapid bevacizumab failure group (<90 days) was to determine the 2-month PFS.
# This solution was reconstituted in dextrose 5% in water to a final concentration between 0.06-0.6 mg/mL Drug (7.5 mg/m2) was to be given until the onset of toxicity requiring discontinuation or tumor progression. Tumor response was assessed=14d after every second cycle and before every third cycle using MRI.
structure (smiles),measurement,setting,value
"CC[C@@]1(O)C(=O)OCc2c1cc1n(c2=O)Cc2c-1nc1ccc(O)cc1c2[Si](C)(C)C(C)(C)C [AR-67, (205)-7-tert-butyldimethysilyl-10-hydroxycamptothecin]","Best Overall Response: Complete Response, patients","All Patients, N = 46",0
same,"Best Overall Response: Progressive Disease, patients","All Patients, N = 46",31
same,"Response at Study Completion or Discontinuation: Complete Response, patients","All Patients, N = 46",0
same,"Response at Study Completion or Discontinuation: Progressive Disease, patients","All Patients, N = 46",39
same,"Response at Study Completion or Discontinuation: Stable Disease, patients","All Patients, N = 46",2
same,"Withdrawal due to Adverse event, patients (%)","All Patients, N = 46",2.2%
same,"Withdrawal due to Death, patients (%)","All Patients, N = 46",6.5%
same,"Withdrawal due to Disease progression, patients (%)","All Patients, N = 46",69.6%
same,"Best Overall Response: Complete Response, patients","Cohort 1, N = 31",0
same,"Best Overall Response: Partial Response, patients","Cohort 1, N = 31",3
same,"Best Overall Response: Progressive Disease, patients","Cohort 1, N = 31",20
same,"Best Overall Response: Stable Disease, patients","Cohort 1, N = 31",5
same,"Response at Study Completion or Discontinuation: Complete Response, patients","Cohort 1, N = 31",0
same,"Response at Study Completion or Discontinuation: Partial Response, patients","Cohort 1, N = 31",1
same,"Response at Study Completion or Discontinuation: Progressive Disease, patients","Cohort 1, N = 31",28
same,"Response at Study Completion or Discontinuation: Stable Disease, patients","Cohort 1, N = 31",0
same,"Withdrawal due to Death, patients (%)","Cohort 1, N = 31",6.5%
same,"Withdrawal due to Disease progression, patients (%)","Cohort 1, N = 31",77.4%
same,"Best Overall Response: Complete Response, patients","Cohort 2, N = 13",0
same,"Best Overall Response: Partial Response, patients","Cohort 2, N = 13",0
same,"Best Overall Response: Progressive Disease, patients","Cohort 2, N = 13",10
same,"Response at Study Completion or Discontinuation: Complete Response, patients","Cohort 2, N = 13",0
same,"Response at Study Completion or Discontinuation: Partial Response, patients","Cohort 2, N = 13",0
same,"Response at Study Completion or Discontinuation: Progressive Disease, patients","Cohort 2, N = 13",10
same,"Response at Study Completion or Discontinuation: Stable Disease, patients","Cohort 2, N = 13",2
same,"Withdrawal due to Adverse event, patients (%)","Cohort 2, N = 13",7.7%
same,"Withdrawal due to Death, patients (%)","Cohort 2, N = 13",7.7%
same,"Withdrawal due to Disease progression, patients (%)","Cohort 2, N = 13",53.8%
same,"efficacy, reason for study termination",in vivo,lack of efficacy
same,outcome,rGBM patients who failed bevacizumab within 90 days of last dose,fared poorly
same,patients who surpassed the PFS6 endpoint,"rGBM patients who had never taken bevacizumab, or had not failed bev treatment within 90 days of last dose",20%
